Laboratory results published in ChEMBL document CHEMBL1201862, “PubChem BioAssay data set” (2004).
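96-well plates; 48 h exposure; 5 concentrations. Endpoints by linear interpolation between flanking doses. Not reached: highest tested concentration assigned. At the GI50, growth is halved.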 Activity calls are given as the source filed them. Cut-off read from the data, not from the text of the source: active = GI50 up to about 1.1 µM and inactive = higher.

Assays:
Assay in all cases: inhibition of tumour cell growth, NCI panel, 48 h
IGROV-1 = test system: IGROV-1
A498 = test system: A498
UACC-257 = test system: UACC-257
EKVX = test system: EKVX
SK-MEL-28 = test system: SK-MEL-28
NCI-H23 = test system: NCI-H23
OVCAR-3 = test system: OVCAR-3
SF-295 = test system: SF-295
RXF 393 = test system: RXF 393
KM12 = test system: KM12
HT-29 = test system: HT-29
HCT-116 = test system: HCT-116
RXF 631 = test system: RXF 631
KM-20L2 = test system: KM-20L2
CCRF-CEM = test system: CCRF-CEM
HOP-62 = test system: HOP-62
786-0 = test system: 786-0
RPMI-8226 = test system: RPMI-8226
K562 = test system: K562
TK-10 = test system: TK-10
DMS-114 = test system: DMS-114
M19-MEL = test system: M19-MEL
M14 = test system: M14
SNB-19 = test system: SNB-19
ACHN = test system: ACHN
SNB-78 = test system: SNB-78
SF-268 = test system: SF-268
MOLT-4 = test system: MOLT-4
SK-MEL-2 = test system: SK-MEL-2
SNB-75 = test system: SNB-75
HCC 2998 = test system: HCC 2998
DMS-273 = test system: DMS-273
CAKI-1 = test system: CAKI-1
XF498 = test system: XF498
OVCAR-4 = test system: OVCAR-4
SK-MEL-5 = test system: SK-MEL-5
COLO 205 = test system: COLO 205
SK-OV-3 = test system: SK-OV-3
Malme-3M = test system: Malme-3M
UO-31 = test system: UO-31
NCI-H460 = test system: NCI-H460
SN12C = test system: SN12C
LXFL 529 = test system: LXFL 529
DLD-1 = test system: DLD-1
OVCAR-8 = test system: OVCAR-8
NCI-H522 = test system: NCI-H522
HCT-15 = test system: HCT-15
UACC-62 = test system: UACC-62
HOP-18 = test system: HOP-18
U-251 = test system: U-251
HL-60 = test system: HL-60
SF-539 = test system: SF-539
A549 = test system: A549
SW-620 = test system: SW-620
SR = test system: SR
HOP-92 = test system: HOP-92
NCI-H226 = test system: NCI-H226
OVCAR-5 = test system: OVCAR-5
LOX IMVI = test system: LOX IMVI

`O/N=C1/C(=C/c2ccc(Cl)cc2)CCCC1C(NO)c1ccc(Cl)cc1` (configuration not stated) was tested, and the GI50 (IGROV-1) was 38.2 µM (inactive), the GI50 (A498) was 18.1 µM (inactive) and the GI50 (UACC-257) was 17.2 µM (inactive). The GI50 (EKVX) was 30.1 µM (inactive), the GI50 (SK-MEL-28) was 5.6 µM (inactive) and the GI50 (NCI-H23) was 20 µM (inactive). For the same compound, the GI50 (OVCAR-3) was 16.8 µM (inactive), the GI50 (SF-295) was 18.9 µM (inactive) and the GI50 (RXF 393) was 12 µM (inactive). For the same compound, the GI50 (KM12) was 19.9 µM (inactive), the GI50 (HT-29) was 19.2 µM (inactive) and the GI50 (HCT-116) was 23.9 µM (inactive). The GI50 (RXF 631) was 18.1 µM (inactive), the GI50 (KM-20L2) was 17.6 µM (inactive) and the GI50 (CCRF-CEM) was 19.1 µM (inactive). For the same compound, the GI50 (HOP-62) was 22.8 µM (inactive), the GI50 (786-0) was 20.7 µM (inactive) and the GI50 (RPMI-8226) was 20.9 µM (inactive). For the same compound, the GI50 (K562) was 24.4 µM (inactive), the GI50 (TK-10) was 31.7 µM (inactive) and the GI50 (DMS-114) was 24.5 µM (inactive). The GI50 (M19-MEL) was 22.9 µM (inactive), the GI50 (M14) was 16.2 µM (inactive) and the GI50 (SNB-19) was 24.2 µM (inactive). The GI50 (ACHN) was 31.5 µM (inactive), the GI50 (SNB-78) was 21.9 µM (inactive) and the GI50 (SF-268) was 15.9 µM (inactive). For the same compound, the GI50 (MOLT-4) was 14.7 µM (inactive), the GI50 (SK-MEL-2) was 27.1 µM (inactive) and the GI50 (SNB-75) was 12.6 µM (inactive). The GI50 (HCC 2998) was 15.5 µM (inactive), the GI50 (DMS-273) was 17.8 µM (inactive) and the GI50 (CAKI-1) was 23.7 µM (inactive). The GI50 (XF498) was 22.5 µM (inactive), the GI50 (OVCAR-4) was 15.6 µM (inactive) and the GI50 (SK-MEL-5) was 22.7 µM (inactive). For the same compound, the GI50 (COLO 205) was 20.7 µM (inactive), the GI50 (SK-OV-3) was 50.8 µM (inactive) and the GI50 (Malme-3M) was 26.7 µM (inactive). For the same compound, the GI50 (UO-31) was 16.6 µM (inactive), the GI50 (NCI-H460) was 17.3 µM (inactive) and the GI50 (SN12C) was 19.3 µM (inactive). The GI50 (LXFL 529) was 25.3 µM (inactive), the GI50 (DLD-1) was 26.5 µM (inactive) and the GI50 (OVCAR-8) was 21.1 µM (inactive). The GI50 (NCI-H522) was 20.3 µM (inactive), the GI50 (HCT-15) was 19.1 µM and the GI50 (UACC-62) was 29 µM (inactive). For the same compound, the GI50 (HOP-18) was 20.3 µM (inactive), the GI50 (U-251) was 20.7 µM (inactive) and the GI50 (HL-60) was 18.5 µM (inactive). For the same compound, the GI50 (SF-539) was 25.2 µM (inactive), the GI50 (A549) was 20.3 µM (inactive) and the GI50 (SW-620) was 30.2 µM (inactive).

`COC(C(=O)NCCCCNC(=O)C(OC)c1ccccc1)c1ccccc1` (configuration not stated) was tested, and the GI50 (IGROV-1) was > 100 µM (inactive), the GI50 (A498) was > 100 µM (inactive) and the GI50 (UACC-257) was > 100 µM (inactive). The GI50 (EKVX) was > 100 µM (inactive), the GI50 (SK-MEL-28) was > 100 µM (inactive) and the GI50 (NCI-H23) was > 100 µM (inactive). For the same compound, the GI50 (OVCAR-3) was > 100 µM (inactive), the GI50 (SF-295) was > 100 µM (inactive) and the GI50 (RXF 393) was > 100 µM (inactive). The GI50 (KM12) was > 100 µM (inactive), the GI50 (HT-29) was > 100 µM (inactive) and the GI50 (HCT-116) was > 100 µM (inactive). For the same compound, the GI50 (RXF 631) was > 100 µM (inactive), the GI50 (KM-20L2) was > 100 µM (inactive) and the GI50 (CCRF-CEM) was > 100 µM (inactive). For the same compound, the GI50 (HOP-62) was > 100 µM (inactive), the GI50 (786-0) was > 100 µM (inactive) and the GI50 (RPMI-8226) was > 100 µM (inactive). The GI50 (K562) was > 100 µM (inactive), the GI50 (TK-10) was > 100 µM (inactive) and the GI50 (DMS-114) was > 100 µM (inactive). The GI50 (M19-MEL) was > 100 µM (inactive), the GI50 (M14) was > 100 µM (inactive) and the GI50 (SNB-19) was > 100 µM (inactive). For the same compound, the GI50 (SR) was > 100 µM (inactive), the GI50 (ACHN) was > 100 µM (inactive) and the GI50 (HOP-92) was > 100 µM (inactive). For the same compound, the GI50 (SNB-78) was > 100 µM (inactive), the GI50 (SF-268) was > 100 µM (inactive) and the GI50 (MOLT-4) was > 100 µM (inactive). For the same compound, the GI50 (SK-MEL-2) was > 100 µM (inactive), the GI50 (SNB-75) was > 100 µM (inactive) and the GI50 (DMS-273) was > 100 µM (inactive). The GI50 (CAKI-1) was > 100 µM (inactive), the GI50 (XF498) was > 100 µM (inactive) and the GI50 (OVCAR-4) was > 100 µM (inactive). The GI50 (SK-MEL-5) was > 100 µM (inactive), the GI50 (COLO 205) was > 100 µM (inactive) and the GI50 (SK-OV-3) was > 100 µM (inactive). The GI50 (Malme-3M) was > 100 µM (inactive), the GI50 (UO-31) was > 100 µM (inactive) and the GI50 (NCI-H460) was > 100 µM (inactive). The GI50 (NCI-H226) was > 100 µM (inactive), the GI50 (OVCAR-5) was > 100 µM (inactive) and the GI50 (SN12C) was > 100 µM (inactive). For the same compound, the GI50 (LXFL 529) was > 100 µM (inactive), the GI50 (DLD-1) was > 100 µM (inactive) and the GI50 (OVCAR-8) was > 100 µM (inactive). The GI50 (NCI-H522) was > 100 µM (inactive), the GI50 (HCT-15) was over 100 µM and the GI50 (UACC-62) was > 100 µM (inactive). For the same compound, the GI50 (HOP-18) was > 100 µM (inactive), the GI50 (U-251) was > 100 µM (inactive) and the GI50 (HL-60) was > 100 µM (inactive). For the same compound, the GI50 (SF-539) was > 100 µM (inactive), the GI50 (A549) was > 100 µM (inactive) and the GI50 (LOX IMVI) was > 100 µM (inactive). The GI50 (SW-620) was > 100 µM (inactive).
